Like-named read-outs stand apart in the source and are kept apart here.
Columns and labels:
[1] = system: human pancreatic cancer Mia PaCa-2 cells xenograft; experiment: Subcutaneous xenograft tumor model of Mia PaCa-2 cells in BALB/c nude mouse; type: in vivo; conditions: Mia PaCa-2 xenograft, BALB/c nude mice, gavage once a day; for TGI(%): Day 21
Experimental: The in vivo efficacy of the representative compounds of the present disclosure in the subcutaneous xenograft tumor model of human pancreatic cancer Mia PaCa-2 cells was evaluated.
[Test materials]: BALB/c nude mice of 6-8 weeks, female, Zhejiang Vital River Laboratory Animal Technology Co., Ltd. Human pancreatic cancer Mia PaCa-2 cells (ATCC, Cat #: CRL-1420). Matrigel (Matrigel, Corning, Cat. No. 356234).
[Experimental procedure]: 0.2 mL (5×10^6) Mia PaCa-2 cells (plus Matrigel, volume ratio 1:1) were inoculated subcutaneously on the right back dorsal of each mouse. […] During the assay, tumor volumes and body weights were measured twice a week.
The tumor volume was calculated according to the following formula: V=0.5a×b^2, where a and b represent the long and short diameters of the tumor, respectively.

[2] = system: BaF3-KRas-G12C-H95Q; experiment: Proliferation of KRas G12C inhibitor-resistant cell model, CTG; type: cell-based; conditions: Adagrasib acquired-resistance model
Experimental: (§1) Each of the above cell lines was cultured in the indicated complete medium at 37° C., 5% CO2, and the cells in the logarithmic growth phase were harvested and counted using a platelet counter. The cell viability was detected by the trypan blue exclusion method to ensure that the cell viability was above 90%. Cell density was adjusted using complete medium, and then inoculated into 96-well cell culture plates, at 90 μL and a total of 3000 cells per well. The cells in the 96-well plate were cultured at 37° C. and 5% CO2.
(§2) 10 μL of each diluted compound solution was transferred to the corresponding experimental well of the 96-well cell plate and each concentration was set three replicate wells. The cells in the 96-well plate that had been dosed were incubated at 37° C. and 5% CO2 for 72 hours, and then CTG analysis was performed.
(§3) The CTG reagent was melted, and the cell plate was moved to room temperature to equilibrate for 30 minutes. 100 μL of CTG solution was added to each well, and shaken on an orbital shaker for 5 minutes to fully lyse the cells. The plate was kept at room temperature for 20 minutes to stabilize the luminescence signal, and the luminescence value of each well was scanned and the data was collected. GraphPad Prism 7.0 software was used to analyze the data, and the nonlinear Sigmoidal regression was used to fit the data to obtain a dose-response curve. The relative and absolute IC50 values and the maximum inhibition rate were calculated according to conventional methods well known to those skilled in the art.
(§4) Inhibition rate %=[1−(LumDrug to be tested−LumCulture medium control)/(LUMCell control−LumCulture medium control)]×100%
(§5) Acquired resistance is one of the key factors that affect the treatment efficacy of KRas G12C inhibitors.
(§6) All cell lines used in this assay were provided by KYinno Biotechnology Co., Ltd.

[3] = system: BaF3-KRas-G12C-R68S; experiment: as above; type: cell-based; conditions: Adagrasib acquired-resistance model
Experimental: as §1, §2, §3, §4, §5, §6

[4] = system: BaF3-KRas-G12C-H95D; experiment: as above; type: cell-based; conditions: Adagrasib acquired-resistance model
Experimental: as §1, §2, §3, §4, §5, §6

[5] = system: BaF3-KRas-G12C-Y96C; experiment: as above; type: cell-based; conditions: Adagrasib acquired-resistance model
Experimental: as §1, §2, §3, §4, §5, §6

[6] = system: MIA-PaCa-2 (KRas-G12C); experiment: KRas mutant cell proliferation, CellTiter-Glo (CTG); type: cell-based; conditions: Homo sapiens, pancreatic cancer, 72 h; for inhibition at up to 10 µM: top concentration 10 μM, read-out: Maximum inhibition %
Excerpt: (§7) In this assay, the CellTiter-Glo (CTG) kit of Promega was used to evaluate the anti-proliferation activities of the compounds of the present disclosure on 12 KRas mutant tumor cell lines.
(§8) [Test materials]: RPMI1640 medium (Hyclone, Cat #SH30809.01); fetal bovine serum (FBS) (Gibco, Cat #10099-141); phosphate buffer PBS (Solarbio, Cat #P1020-500); DMSO (Sigma, Cat #D8418-1L); detection kit CTG (Promega, Cat #G7573); 96-well cell culture plate (Thermo, Cat #3100 Series); Vibrator (QILINBEIER, Cat #QB-9001); Incubator (Thermo Scientific, Cat #Model 3100 series); microscope (OLYMPUS, Cat #CKX41SF); multi-function microplate reader (BMG LABTECH, Cat #CLARIOstar® Plus); biological safety cabinet (Thermo, Cat #Model 1300 Series A2). All cell lines used in the following assay were purchased from KYinno Biotechnology Co., Ltd.
as §1
as §2, with “The test compound solution in culture medium was prepared, the top concentration was 10 μM, serially diluted at a dilution factor of 3.16 to afford 9 concentrations. 10” for “10”
as §3, §4

[7] = system: T84 (KRas-G13D); experiment: as above; type: cell-based; conditions: colon cancer, 72 h; for inhibition at up to 10 µM: top concentration 10 μM, read-out: Maximum inhibition %
Excerpt: as §7, §8, §1
as §2, with “The test compound solution in culture medium was prepared, the top concentration was 10 μM, serially diluted at a dilution factor of 3.16 to afford 9 concentrations. 10” for “10”
as §3, §4

[8] = system: H1373 (KRas-G12C); experiment: as above; type: cell-based; conditions: Homo sapiens, NCI-H1373, lung cancer, 72 h; for inhibition at up to 10 µM: top concentration 10 μM, read-out: Maximum inhibition %
Excerpt: as §7, §8, §1
as §2, with “The test compound solution in culture medium was prepared, the top concentration was 10 μM, serially diluted at a dilution factor of 3.16 to afford 9 concentrations. 10” for “10”
as §3, §4

[9] = system: A549 (KRasG12S); experiment: as above; type: cell-based; conditions: Homo sapiens, A549, KRas G12S, lung cancer, 72 h; for inhibition at up to 10 µM: top concentration 10 μM, read-out: Maximum inhibition %
Excerpt: as §7, §8, §1
as §2, with “The test compound solution in culture medium was prepared, the top concentration was 10 μM, serially diluted at a dilution factor of 3.16 to afford 9 concentrations. 10” for “10”
as §3, §4

[10] = system: Kyse-410 (KRas-G12C); experiment: as above; type: cell-based; conditions: Homo sapiens, esophageal cancer, 72 h; for inhibition at up to 10 µM: top concentration 10 μM, read-out: Maximum inhibition %
Excerpt: as §7, §8, §1
as §2, with “The test compound solution in culture medium was prepared, the top concentration was 10 μM, serially diluted at a dilution factor of 3.16 to afford 9 concentrations. 10” for “10”
as §3, §4

[11] = system: SW837 (KRas-G12C); experiment: as above; type: cell-based; conditions: Homo sapiens, rectal cancer, 72 h; for inhibition at up to 10 µM: top concentration 10 μM, read-out: Maximum inhibition %
Excerpt: as §7, §8, §1
as §2, with “The test compound solution in culture medium was prepared, the top concentration was 10 μM, serially diluted at a dilution factor of 3.16 to afford 9 concentrations. 10” for “10”
as §3, §4

[12] = system: HCT116 (KRas-G13D); experiment: as above; type: cell-based; conditions: Homo sapiens, HCT-116, colorectal cancer, 72 h; for inhibition at up to 10 µM: top concentration 10 μM, read-out: Maximum inhibition %
Excerpt: as §7, §8, §1
as §2, with “The test compound solution in culture medium was prepared, the top concentration was 10 μM, serially diluted at a dilution factor of 3.16 to afford 9 concentrations. 10” for “10”
as §3, §4

[13] = system: H23 (KRas-G12C); experiment: as above; type: cell-based; conditions: lung cancer, 72 h; for inhibition at up to 10 µM: top concentration 10 μM, read-out: Maximum inhibition %
Excerpt: as §7, §8, §1
as §2, with “The test compound solution in culture medium was prepared, the top concentration was 10 μM, serially diluted at a dilution factor of 3.16 to afford 9 concentrations. 10” for “10”
as §3, §4

| Compound | Tumor volume (mm^3) (Day 21) ([1]; 10 mpk) | TGI(%) ([1]; 10 mpk) | IC50 [2] [nM] | IC50 [3] [nM] | IC50 [4] [nM] | IC50 [5] [nM] | IC50 ([6]; read-out: Absolute IC50) [nM] | IC50 ([6]; read-out: Relative IC50) [nM] | inhibition at up to 10 µM [6] [%] | IC50 ([7]; read-out: Absolute IC50) [nM] | IC50 ([7]; read-out: Relative IC50) [nM] | inhibition at up to 10 µM [7] [%] | IC50 ([8]; read-out: Absolute IC50) [nM] | IC50 ([8]; read-out: Relative IC50) [nM] | inhibition at up to 10 µM [8] [%] | inhibition at up to 10 µM [9] [%] | IC50 ([9]; read-out: Absolute IC50) [nM] | IC50 ([9]; read-out: Relative IC50) [nM] | IC50 ([10]; read-out: Absolute IC50) [nM] | IC50 ([10]; read-out: Relative IC50) [nM] | also measured |
| --- | --- | --- | --- | --- | --- | --- | --- | --- | --- | --- | --- | --- | --- | --- | --- | --- | --- | --- | --- | --- | --- |
| C=CC(=O)N1CCN(c2nc(=O)n(-c3c(C)ccnc3C(C)C)c3nc(-c4c(O)cccc4F)c(F)cc23)[C@@H](C)C1 (atropisomer, axis not shown) [AMG510, reference compound] | 432 | 72.3 | – | – | – | – | – | – | – | – | – | – | – | – | – | – | – | – | – | – | – |
| C=CC(=O)N1CCN(c2ncnc3c(F)c(-c4ccc(F)c5sc(N)nc45)c(Cl)cc23)CC1 [Ref. Comp. A, reference compound] | – | – | 120 | 1790 | 150 | 550 | 92 | 41 | 74.5 | > 10000 | > 10000 | 4.59 | 3240 | 1920 | 65.2 | 19.7 | > 10000 | > 10000 | 7240 | 5630 | inhibition at up to 10 µM [10]: 58.3%; IC50 ([11]; read-out: Absolute IC50): > 10000 nM; IC50 ([11]; read-out: Relative IC50): 18 nM; inhibition at up to 10 µM [11]: 48.6%; IC50 ([12]; read-out: Absolute IC50): > 10000 nM; IC50 ([12]; read-out: Relative IC50): > 10000 nM; inhibition at up to 10 µM [12]: 29.3%; IC50 ([13]; read-out: Absolute IC50): 521 nM; IC50 ([13]; read-out: Relative IC50): 320 nM; inhibition at up to 10 µM [13]: 85.9% |
| C=CC(=O)N1CCN(c2c(C#N)cnc3c(F)c(-c4ccc(F)c5sc(N)nc45)c(Cl)cc23)CC1 [Example 9, 4-(4-Acryloylpiperazin-1-yl)-7-(2-amino-7-fluorobenzo[d]thiazol-4-yl)-6-chloro-8-fluoroquinoline-3-carbonitrile] | 246 | 89.8 | 91 | 560 | 100 | 310 | 81 | 36 | 85.9 | > 10000 | > 10000 | 14.7 | 1510 | 1640 | 80.3 | 44.1 | > 10000 | > 10000 | 1570 | 2040 | Tumor volume (mm^3) (Day 21) ([1]; 3 mpk): 665 mm^3; TGI(%) ([1]; 3 mpk): 50.4%; Tumor volume (mm^3) (Day 21) ([1]; 30 mpk): 162 mm^3; TGI(%) ([1]; 30 mpk): 97.7%; inhibition at up to 10 µM [10]: 77.5%; IC50 ([11]; read-out: Absolute IC50): 431 nM; IC50 ([11]; read-out: Relative IC50): 17 nM; inhibition at up to 10 µM [11]: 60%; IC50 ([12]; read-out: Absolute IC50): 7060 nM; IC50 ([12]; read-out: Relative IC50): 5890 nM; inhibition at up to 10 µM [12]: 62%; IC50 ([13]; read-out: Absolute IC50): 273 nM; IC50 ([13]; read-out: Relative IC50): 205 nM; inhibition at up to 10 µM [13]: 94.4% |

From patent US20230406849A1, “KRAS INHIBITORS FOR TREATMENT OF CANCERS” (TYLIGAND BIOSCIENCE (SHANGHAI) LIMITED, priority 2020, published 2023)
